Test system: M. tuberculosis
Assay: MIC alone and in combination (synergy test)
Format: cell-based, Mycobacterium tuberculosis
Settings: for change of MIC when tested together: combination of Ethambutol and Isoniazid (negative control, FIG. 2)
Procedure: A sulfonylurea ALS inhibitor and a triazolopyrimidine ALS inhibitor were tested alone and in combination with Rifampicin. The positive controls used were Isoniazid and Streptomycin where one finds a synergistic action. The individual MICs of Isoniazid (INH) and Streptomycin (Strep) are 0.03 and 1.0 μg/ml respectively. When used in combination, these values drop to 0.0075 and 0.12 μg/ml respectively (cf. FIG. 1). This is 4 fold and 8 fold less.
The negative control used was a combination of Ethambutol (Etham) and Isoniazid (Inh) where there is no synergistic activity. […] In. Clinical Microbiology Procedures Handbook; Vol. 1-2 by Isenberg, Henry. D. Ed Washington D.C.; American Society for Microbiology/1992; Pages 5.18.1 to 5.18.28).
When used in combination, these MICs drop 0.0038 and 0.03 ug/ml respectively, which is 8-fold less for both the drugs.
When used in combination, these MICs drop to 0.0038 & 0.03 ug/ml which is 4 & 8-fold less for both the drugs.

[1] = combination of Isoniazid and Streptomycin versus individual MIC

CC[C@@H](CO)NCCN[C@@H](CC)CO [Ethambutol]
change of MIC when tested together: do not drop significantly

NNC(=O)c1ccncc1 [Isoniazid]
change of MIC when tested together: do not drop significantly | fold less MIC in combination [1]: 4 fold

CO[C@H]1/C=C/O[C@@]2(C)Oc3c(C)c(O)c4c(O)c(c(/C=N/N5CCN(C)CC5)c(O)c4c3C2=O)NC(=O)/C(C)=C\C=C\[C@H](C)[C@H](O)[C@@H](C)[C@@H](O)[C@@H](C)[C@H](OC(C)=O)[C@@H]1C [Rifampicin]
fold less MIC in combination (combination of Rifampicin and SU versus individual MIC): 8 fold | fold less MIC in combination (combination of Rifampicin and TP versus individual MIC): 4 fold

[H]/N=C(/N)N[C@H]1[C@H](O)[C@@H](O)[C@H](O[C@@H]2O[C@@H](C)[C@](O)(C=O)[C@H]2O[C@@H]2O[C@@H](CO)[C@H](O)[C@@H](O)[C@@H]2NC)[C@@H](N/C(N)=N\[H])[C@@H]1O [Streptomycin]
fold less MIC in combination [1]: 8 fold

From US20090181980A1, “Synergistic Pharmaceutical Composition” (priority 2006, published 2009)
